Series [1] concerns Cell viability.
Series [2] concerns the target T1, 229E Mpro (Human coronavirus 229E, UniProt P0C6X1).
T1 construct: Mpro
In words: 229E Mpro assay (Table 3). In kind it is biochemical, Human Coronavirus (HCov) 229E.
Protocol: Compounds are assayed using standard methods to assess compound activity and IC50. […] The assay buffer contains 20 mM of Tris-HCl (pH 7.3), 100 mM of NaCl, 1 mM of EDTA, 5 mM of TCEP and 0.1% BSA.
The compounds are added to an assay plate.
IC50 values of compounds are calculated with the GraphPad Prism software using the nonlinear regression model of log(inhibitor) vs. response—Variable slope (four parameters). The inhibition activity is calculated using the formula below, IC50 values is calculated using the Inhibition % data. Inhibition %=[(Sample−Average ZPE)/(Average HPE−Average ZPE)]*100%^# • ^#HEP: Hundred percent effect controls. […] Containing enzyme+substrate, no compound. • Sample: Compound activity testing wells. Containing compound+enzyme+substrate. • BG: Compound background control wells. Containing compound+substrate, no enzyme.

For series [3], the system named is HCoV 229E. In words: HCoV 229E cytopathic effect (CPE) assay, CellTiter Glo. In kind it is cell-based, Human Coronavirus (HCov) 229E. As to conditions: protection from virus-induced CPE. For orientation: Cytopathic effects are the visible damage that an infection or toxin causes in cultured cells.
Protocol: The antiviral activity of compounds is calculated based on the protection of the virus-induced CPE at each concentration normalized by the virus control.
Reagents and instruments used in this assay include luminescent cell viability assay kit CellTiter Glo (Promega) and Microplate Reader Synergy2 (BioTek).
Cytopathic effect (CPE) is measured by CellTiter Glo following the manufacturer's manual. The antiviral activity of compounds is calculated based on the protection of the virus-induced CPE at each concentration normalized by the virus control.
Series [4] has as its target COVID-19 (nCoV-2019, SARS-CoV2) Mpro (Severe acute respiratory syndrome coronavirus 2, UniProt P0DTD1). In words: SARS-CoV2 Mpro enzymatic assay. In kind it is biochemical. As to conditions: 25 nM Mpro, 25 μM substrate.

The text below walks through data of patent US12145911B2, “Inhibitors of cysteine proteases and methods of use thereof” (priority 2020, dated 2024).

Where only a bound is given, the exact number is not on record here.

T1 sequence (P0C6X1 2966-3267): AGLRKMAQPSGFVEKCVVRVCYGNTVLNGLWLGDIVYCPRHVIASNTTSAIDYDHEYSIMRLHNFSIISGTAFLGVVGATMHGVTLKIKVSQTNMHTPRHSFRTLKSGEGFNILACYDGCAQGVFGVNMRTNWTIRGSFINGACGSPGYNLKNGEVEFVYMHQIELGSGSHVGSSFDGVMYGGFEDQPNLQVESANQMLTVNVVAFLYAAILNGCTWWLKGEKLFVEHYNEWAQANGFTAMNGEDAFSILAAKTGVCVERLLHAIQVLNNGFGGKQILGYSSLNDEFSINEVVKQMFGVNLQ

Consider `CC(C)CC(NC(=O)c1nc2ncccc2[nH]1)C(=O)NC(C#N)CC1CCNC1=O` (single isomer, unassigned) [130 (Isomer 1)], for which the CC50 (in general, the concentration that lowers cell viability or growth by half) in series [1] is more than 30 µM.
For the compound `COc1cccc2[nH]c(C(=O)NC(CC(C)(F)F)C(=O)NC(C#N)CC3CCNC3=O)cc12` (single isomer, unassigned) [497 (Isomer 2)], the EC50 in series [2] and in series [3] was less than 2000 nM in each case.
As to `COc1cccc2[nH]c(C(=O)N3CC4(C[C@H]3C(=O)N[C@H](C#N)C[C@@H]3CCCNC3=O)CC(F)(F)C4)cc12` (single isomer, unassigned) [723 (Isomer 1)], the EC50 (in general, the concentration that produces a half-maximal response) in series [2] fell in the range of 10000 to 30000 nM. In addition, the half-inhibitory concentration (IC50) (as a rule, the concentration needed to halve the response being measured) in series [4] lay in the range of 10000 to 30000 nM.
`COc1cccc2[nH]c(C(=O)N3CC4(C[C@H]3C(=O)N[C@H](C#N)C[C@@H]3CCCNC3=O)CC(F)(F)C4)cc12` (single isomer, unassigned) [723 (Isomer 2)]: in series [2], the EC50 is less than 2000 nM. The compound further gave an IC50 in series [4] of less than 2000 nM.
Take `N#C[C@H](C[C@@H]1CCCNC1=O)NC(=O)[C@@H]1CC2(CN1C(=O)c1cc3cccc(Cl)c3[nH]1)CC(F)(F)C2` (single isomer, unassigned) [743 (Isomer 1)]: the EC50 in series [2] is more than 30000 nM. The IC50 in series [4] is more than 30000 nM.
In series [2], `N#C[C@H](C[C@@H]1CCCNC1=O)NC(=O)[C@@H]1CC2(CN1C(=O)c1cc3cccc(Cl)c3[nH]1)CC(F)(F)C2` (single isomer, unassigned) [743 (Isomer 2)] displayed an EC50 of less than 2000 nM. Besides, the IC50 in series [4] was less than 2000 nM.
The compound `CC1(C)CCC(CC(C#N)NC(=O)[C@H](CC2CC2)NC(=O)c2cc3cccc(Cl)c3[nH]2)C(=O)N1` (single isomer, unassigned) [749A (Isomer 1)] came in with an IC50 in series [4] of less than 2000 nM.
The compound `COC(=O)NS(=O)(=O)n1nccc1C(=O)NC(CC1CC1)C(=O)NC(C#N)CC1CCCNC1=O` (single isomer, unassigned) [787A (Isomer 2)] had an EC50 in series [2] of 2000 to 10000 nM. The IC50 in series [4] was less than 2000 nM.
Take `CC1(C)CC(C[C@@H](C#N)NC(=O)[C@H](CC2CC2)NC(=O)c2cc3cccc(Cl)c3[nH]2)C(=O)N1` (single isomer, unassigned) [1053 (Isomer 3)]: the EC50 in series [2] lay in the range of 2000 to 10000 nM.
With `CC1(C)CC(CC(C#N)NC(=O)C(CC2CC2)NC(=O)c2cc3cccc(Cl)c3[nH]2)C(=O)N1` (single isomer, unassigned) [1053 (Isomer 4)], the EC50 in series [2] is less than 2000 nM.
Consider `COc1cccc2[nH]c(C(=O)N[C@H](CC3CC3)C(=O)N[C@H](C#N)C[C@@H]3CCC(C)(C)NC3=O)cc12` (single isomer, unassigned; isomer 1) [787A (Isomer 1)], for which the EC50 in series [2] lay within 2000 to 10000 nM.
The same measure, in the same setting: the figure for `N#C[C@H](C[C@@H]1CCNC1=O)NC(=O)[C@@H]1CS[C@H]2CC[C@H](NC(=O)OCc3ccccc3)C(=O)N21` [Compound 457, Benzyl((3R,6S,8aS)-3-(((S)-1-cyano-2-((S)-2-oxopyrrolidin-3-yl)ethyl)carbamoyl)-5-oxohexahydro-2H-thiazolo[3,2-a]pyridin-6-yl)carbamate] is more than 30000 nM; for `Cc1cc(C(=O)N[C@H]2CC[C@@H]3SC[C@@H](C(=O)N[C@H](C#N)C[C@@H]4CCNC4=O)N3C2=O)no1` [Compound 459, N-((3R,6S,8aS)-3-(((S)-1-cyano-2-((S)-2-oxopyrrolidin-3-yl)ethyl)carbamoyl)-5-oxohexahydro-2H-thiazolo[3,2-a]pyridin-6-yl)-5-methylisoxazole-3-carboxamide] it is more than 30000 nM; for `N#C[C@H](C[C@@H]1CCNC1=O)NC(=O)[C@H](CC1CC1)NC(=O)c1nc2c(Cl)cc(Cl)cc2[nH]1` [Compound 525, 4,6-dichloro-N-[(1S)-2-[[(1S)-1-cyano-2-[(3S)-2-oxopyrrolidin-3-yl]ethyl]amino]-1-(cyclopropylmethyl)-2-oxo-ethyl]-1H-benzimidazole-2-carboxamide] it is less than 2000 nM.
In turn, `N#C[C@H](C[C@@H]1CCNC1=O)NC(=O)[C@H](CC1CC1)NC(=O)c1cc2ccc(Cl)cc2[nH]1` [Compound 529, 6-chloro-N-[(1S)-2-[[(1S)-1-cyano-2-[(3S)-2-oxopyrrolidin-3-yl]ethyl]amino]-1-(cyclopropylmethyl)-2-oxo-ethyl]-1H-indole-2-carboxamide] yielded an EC50 in series [2] of less than 2000 nM.
The compound `N#C[C@H](C[C@@H]1CCNC1=O)NC(=O)[C@H](CC1CC1)NC(=O)c1cc2c(Cl)ccc(Cl)c2[nH]1` [Compound 691, 4,7-dichloro-N-[(1S)-2-[[(1S)-1-cyano-2-[(3S)-2-oxopyrrolidin-3-yl]ethyl]amino]-1-(cyclopropylmethyl)-2-oxo-ethyl]-1H-indole-2-carboxamide] registered an EC50 in series [2] of less than 2000 nM.
The same measure, in the same setting: for `COc1cc(Cl)c2[nH]c(C(=O)N[C@@H](CC3CC3)C(=O)N[C@H](C#N)C[C@@H]3CCNC3=O)cc2c1` [Compound 695, 7-chloro-N-[(1S)-2-[[(1S)-1-cyano-2-[(3S)-2-oxopyrrolidin-3-yl]ethyl]amino]-1-(cyclopropylmethyl)-2-oxo-ethyl]-5-methoxy-1H-indole-2-carboxamide] the value was less than 2000 nM.
